Results: patent US10336761B2, “TGFβ receptor antagonist” (BRISTOL-MYERS SQUIBB COMPANY, priority 2015, dated 2019)

Target: HIS-TGFβR1 T204D (Homo sapiens (Human), UniProt P36897, T204D)
Assay: HTRF probe-displacement assay, HIS-TGFβR1 T204D
Format: binding
Settings: 1 hour at room temperature

Sequence of HIS-TGFβR1 T204D (P36897 34-503 T204D): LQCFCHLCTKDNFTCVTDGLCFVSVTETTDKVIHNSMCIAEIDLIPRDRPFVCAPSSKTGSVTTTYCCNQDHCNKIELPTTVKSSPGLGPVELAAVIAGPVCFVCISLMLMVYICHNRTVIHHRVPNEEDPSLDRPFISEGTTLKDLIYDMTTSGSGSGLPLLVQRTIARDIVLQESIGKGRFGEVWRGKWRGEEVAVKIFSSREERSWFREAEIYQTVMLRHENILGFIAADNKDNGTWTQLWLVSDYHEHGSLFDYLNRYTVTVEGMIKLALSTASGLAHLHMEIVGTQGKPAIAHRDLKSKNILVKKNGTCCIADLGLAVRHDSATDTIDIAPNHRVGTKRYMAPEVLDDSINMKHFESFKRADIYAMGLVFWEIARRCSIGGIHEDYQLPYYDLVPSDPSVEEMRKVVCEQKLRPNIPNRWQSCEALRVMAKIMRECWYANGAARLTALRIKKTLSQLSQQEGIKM

SMILES	IC50 [nM]
Fc1cnccc1Nc1nc(-c2cccc(C(F)(F)F)n2)nn2ccc(CN3CCC(F)(F)CC3)c12 [Example 123, N-{5-[(4,4-difluoropiperidin-1-yl)methyl]-2-[6-(trifluoromethyl)pyridin-2-yl]pyrrolo[2,1-f][1,2,4]triazin-4-yl}-3-fluoropyridin-4-amine]	13
CCCNC(=O)c1cnccc1Nc1nc(-c2cccc(C(F)F)n2)nn2cccc12 [Example 184, 4-({2-[6-(difluoromethyl)pyridin-2-yl]pyrrolo[2,1-f][1,2,4]triazin-4-yl}amino)-N-propylpyridine-3-carboxamide]	14
COc1cccc(-c2nc(Nc3ccnc(NCCN4CCOCC4)c3)c3cccn3n2)n1 [Example 139, 4-N-[2-(6-methoxypyridin-2-yl)pyrrolo[2,1-f][1,2,4]triazin-4-yl]-2-N-[2-(morpholin-4-yl)ethyl]pyridine-2,4-diamine]	190
O=C(NCc1nccs1)c1cnccc1Nc1nc(-c2cccc(C(F)F)n2)nn2cccc12 [Example 183, 4-({2-[6-(difluoromethyl)pyridin-2-yl]pyrrolo[2,1-f][1,2,4]triazin-4-yl}amino)-N-(1,3-thiazol-2-ylmethyl)pyridine-3-carboxamide]	44
NC(=O)c1cccc(-c2nc(Nc3ccncc3F)c3cccn3n2)n1 [Example 5, 6-{4-[(3-fluoropyridin-4-yl)amino]pyrrolo[2,1-f][1,2,4]triazin-2-yl}pyridine-2-carboxamide]	65
CC(C)(O)CNCc1ccn2nc(-c3cccc(C(F)(F)F)n3)nc(Nc3ccncc3F)c12 [Example 124, 1-[({4-[(3-fluoropyridin-4-yl)amino]-2-[6-(trifluoromethyl)pyridin-2-yl]pyrrolo[2,1-f][1,2,4]triazin-5-yl}methyl)amino]-2-methylpropan-2-ol]	6
Clc1cnccc1Nc1nc(-c2ccccn2)nn2cccc12 [Example 54, 3-chloro-N-[2-(pyridin-2-yl)pyrrolo[2,1-f][1,2,4]triazin-4-yl]pyridin-4-amine]	1.6
COc1cccc(-c2nc(Nc3ccncc3F)c3c(CNC[C@@H](F)C(C)(C)O)ccn3n2)n1 [Example 120, (3R)-3-fluoro-4-[({4-[(3-fluoropyridin-4-yl)amino]-2-(6-methoxypyridin-2-yl)pyrrolo[2,1-f][1,2,4]triazin-5-yl}methyl)amino]-2-methylbutan-2-ol]	98
COc1cccc(-c2nc(Nc3ccncc3F)c3cc(C(C)(C)O)cn3n2)n1 [Example 39, 2-{4-[(3-fluoropyridin-4-yl)amino]-2-(6-methoxypyridin-2-yl)pyrrolo[2,1-f][1,2,4]triazin-6-yl}propan-2-ol]	1600
COc1cccc(-c2nc(Nc3ccncc3F)c3c(C(O)CO)ccn3n2)n1 (centres unmarked) [Example 28, 1-{4-[(3-fluoropyridin-4-yl)amino]-2-(6-methoxypyridin-2-yl)pyrrolo[2,1-f][1,2,4]triazin-5-yl}ethane-1,2-diol]	16
COc1cccc(-c2nc(Nc3ccncc3F)c3cc(CCN4CCN(C)CC4)cn3n2)n1 [Example 44, 3-fluoro-N-[2-(6-methoxypyridin-2-yl)-6-[2-(4-methylpiperazin-1-yl)ethyl]pyrrolo[2,1-f][1,2,4]triazin-4-yl]pyridin-4-amine]	1700
O=C(NCCCN1CCS(=O)(=O)CC1)c1cnccc1Nc1nc(-c2cccc(C(F)F)n2)nn2cccc12 [Example 168, 4-({2-[6-(difluoromethyl)pyridin-2-yl]pyrrolo[2,1-f][1,2,4]triazin-4-yl}amino)-N-[3-(1,1-dioxo-1,4-thiomorpholin-4-yl)propyl]pyridine-3-carboxamide]	8.6
COc1cccc(-c2nc(Nc3ccnc(N4CCOCC4)c3)c3cccn3n2)n1 [Example 99, N-[2-(6-methoxypyridin-2-yl)pyrrolo[2,1-f][1,2,4]triazin-4-yl]-2-(morpholin-4-yl)pyridin-4-amine]	2900
COc1cccc(-c2nc(Nc3ccncc3)c3c(Cl)ccn3n2)n1 [Example 91, N-[5-chloro-2-(6-methoxypyridin-2-yl)pyrrolo[2,1-f][1,2,4]triazin-4-yl]pyridin-4-amine]	49

Further lines, results first:

IC50 [nM]	SMILES
23	O=C(NC1CCC1)c1cnccc1Nc1nc(-c2cccc(C(F)F)n2)nn2cccc12 [Example 193, N-cyclobutyl-4-({2-[6-(difluoromethyl)pyridin-2-yl]pyrrolo[2,1-f][1,2,4]triazin-4-yl}amino)pyridine-3-carboxamide]
3500	O=C(c1cnccc1Nc1nc(-c2cccc(C(F)F)n2)nn2cccc12)N1CCC(O)CC1 [Example 200, 1-[4-({2-[6-(difluoromethyl)pyridin-2-yl]pyrrolo[2,1-f][1,2,4]triazin-4-yl}amino)pyridine-3-carbonyl]piperidin-4-ol]
1.2	OC12C[C@H]3C[C@@H](C1)CC(NCc1ccn4nc(-c5ccccn5)nc(Nc5ccncc5F)c14)(C3)C2 [Example 237, (5R,7S)-3-[({4-[(3-fluoropyridin-4-yl)amino]-2-(pyridin-2-yl)pyrrolo[2,1-f][1,2,4]triazin-5-yl}methyl)amino]adamantan-1-ol]
1.1	Fc1cnccc1Nc1nc(-c2ccccn2)nn2ccc(CNCC(F)(F)F)c12 [Example 268, 3-fluoro-N-[2-(pyridin-2-yl)-5-{[(2,2,2-trifluoroethyl)amino]methyl}pyrrolo[2,1-f][1,2,4]triazin-4-yl]pyridin-4-amine]
0.89	CCC(=O)Nc1cc(Nc2nc(-c3cccc(C(F)(F)F)n3)nn3cccc23)ccn1 [Example 313, N-[4-({2-[6-(trifluoromethyl)pyridin-2-yl]pyrrolo[2,1-f][1,2,4]triazin-4-yl}amino)pyridin-2-yl]propanamide]
1.2	Fc1cnccc1Nc1nc(-c2ccccn2)nn2ccc(CNCC3CCC3)c12 [Example 271, N-(5-{[(cyclobutylmethyl)amino]methyl}-2-(pyridin-2-yl)pyrrolo[2,1-f][1,2,4]triazin-4-yl)-3-fluoropyridin-4-amine]
4.7	Cc1nnc(NCc2ccn3nc(-c4ccccn4)nc(Nc4ccncc4F)c23)s1 [Example 308, 3-fluoro-N-(5-{[(5-methyl-1,3,4-thiadiazol-2-yl)amino]methyl}-2-(pyridin-2-yl)pyrrolo[2,1-f][1,2,4]triazin-4-yl)pyridin-4-amine]
1.2	Fc1cnccc1Nc1nc(-c2ccccn2)nn2ccc(CN3CCOCC3)c12 [Example 290, 3-fluoro-N-[5-(morpholin-4-ylmethyl)-2-(pyridin-2-yl)pyrrolo[2,1-f][1,2,4]triazin-4-yl]pyridin-4-amine]
0.27	CC1(NCc2ccn3nc(-c4ccccn4)nc(Nc4ccncc4F)c23)CCC1 [Example 241, 3-fluoro-N-(5-{[(1-methylcyclobutyl)amino]methyl}-2-(pyridin-2-yl)pyrrolo[2,1-f][1,2,4]triazin-4-yl)pyridin-4-amine]
11	CNC(=O)c1cc2c(Nc3ccncc3)nc(-c3cccc(C)n3)nn2c1 [Example 220, N-methyl-2-(6-methylpyridin-2-yl)-4-[(pyridin-4-yl)amino]pyrrolo[2,1-f][1,2,4]triazine-6-carboxamide]
26	O=C(NCc1cocn1)c1cnccc1Nc1nc(-c2cccc(C(F)F)n2)nn2cccc12 [Example 195, 4-({2-[6-(difluoromethyl)pyridin-2-yl]pyrrolo[2,1-f][1,2,4]triazin-4-yl}amino)-N-(1,3-oxazol-4-ylmethyl)pyridine-3-carboxamide]
250	Fc1cc(Nc2nc(-c3cccc(C(F)(F)F)n3)nn3cccc23)ccn1 [Example 256, 2-fluoro-N-{2-[6-(trifluoromethyl)pyridin-2-yl]pyrrolo[2,1-f][1,2,4]triazin-4-yl}pyridin-4-amine]
2.4	Fc1cnccc1Nc1nc(-c2ccccn2)nn2ccc(CNC3CCCNC3)c12 (centres unmarked) [Example 267, 3-fluoro-N-(5-{[(piperidin-3-yl)amino]methyl}-2-(pyridin-2-yl)pyrrolo[2,1-f][1,2,4]triazin-4-yl)pyridin-4-amine]
13	CN1CCC(OCc2ccn3nc(-c4ccccn4)nc(Nc4ccncc4F)c23)CC1 [Example 328, 3-fluoro-N-(5-{[(1-methylpiperidin-4-yl)oxy]methyl}-2-(pyridin-2-yl)pyrrolo[2,1-f][1,2,4]triazin-4-yl)pyridin-4-amine]
360	N#Cc1cc(Nc2nc(-c3cccc(C(F)(F)F)n3)nn3cccc23)ccn1 [Example 292, 4-({2-[6-(trifluoromethyl)pyridin-2-yl]pyrrolo[2,1-f][1,2,4]triazin-4-yl}amino)pyridine-2-carbonitrile]
3.3	CC(=O)Nc1cc(Nc2nc(-c3cccc(F)n3)nn3cccc23)c(F)cn1 [Example 339, N-(5-fluoro-4-{[2-(6-fluoropyridin-2-yl)pyrrolo[2,1-f][1,2,4]triazin-4-yl]amino}pyridin-2-yl)acetamide]
< 0.76	Cc1ccc(F)c(-c2nc(Nc3ccncc3F)c3cccn3n2)n1 [Example 261, 3-fluoro-N-[2-(3-fluoro-6-methylpyridin-2-yl)pyrrolo[2,1-f][1,2,4]triazin-4-yl]pyridin-4-amine]
230	CC(C)(C)OC(=O)CNC(=O)c1cnccc1Nc1nc(-c2cccc(C(F)F)n2)nn2cccc12 [Example 196, tert-butyl 2-{[4-({2-[6-(difluoromethyl)pyridin-2-yl]pyrrolo[2,1-f][1,2,4]triazin-4-yl}amino)pyridin-3-yl]formamido}acetate]
0.58	OC1CCN(Cc2ccn3nc(-c4ccccn4)nc(Nc4ccncc4F)c23)CC1 [Example 243, 1-({4-[(3-fluoropyridin-4-yl)amino]-2-(pyridin-2-yl)pyrrolo[2,1-f][1,2,4]triazin-5-yl}methyl)piperidin-4-ol]
9.2	COc1cccc(-c2nc(Nc3ccncc3CO)c3cccn3n2)n1 [Example 206, (4-{[2-(6-methoxypyridin-2-yl)pyrrolo[2,1-f][1,2,4]triazin-4-yl]amino}pyridin-3-yl)methanol]
3.9	Fc1cnccc1Nc1nc(-c2ccccn2)nn2ccc(CNCCCN3CCOCC3)c12 [Example 246, 3-fluoro-N-[5-({[3-(morpholin-4-yl)propyl]amino}methyl)-2-(pyridin-2-yl)pyrrolo[2,1-f][1,2,4]triazin-4-yl]pyridin-4-amine]
